The results in this text go back to patent US6492399B1, “Pharmaceutical compositions and methods for use” (Targacept, Inc., priority 1998, dated 2002).

What all share (assay type): biochemical
The subject of one assay is dopamine release. As to the kind of experiment: Determination of dopamine release. The note with it: amount released relative to (S)-(-)-nicotine. On the procedure:
Determination of Dopamine Release
Dopamine release was measured using the techniques described in U.S. Pat. No. 5,597,919 to Dull et al. Release is expressed as a percentage of release obtained with a concentration of (S)-(−)-nicotine resulting in maximal effects. Reported EC50 values are expressed in nM, and Emax values represent the amount released relative to (S)-(−)-nicotine on a percentage basis.

In the next assay the test system is Rat brain synaptosomes. As to the kind of experiment: Neurotransmitter release from brain synaptosomes. Particulars: 10 μM ligand; percentage of release with 10 μM (S)-(-)-nicotine or 300 μM TMA. The procedure:
Neurotransmitter Release From Brain Synaptosomes
Neurotransmitter release was measured using techniques similar to those previously published (Bencherif M, et al . . . JPET279: 1413-1421, 1996).
Rat brain synaptosomes were prepared as follows: Female Sprague Dawley rats (100-200 g) were killed by decapitation after anesthesia with 70% CO2. Brains are dissected, and hippocampus, striatum, and thalamus isolated, and homogenized in 0.32 M sucrose containing 5 mM HEPES pH 7.4 using a glass/glass homogenizer. The tissue was then centrifuged for 1000×g for 10 minutes and the pellet discarded. The supernatant was centrifuged at 12000×g for 20 minutes. The resultant pellet was re-suspended in perfusion buffer (128 mM NaCl, 1.2 mM KH2PO4, 2.4 mM KCl, 3.2 mM CaCl2, 1.2 mM MgSO4, 25 mM HEPES, 1 mM Ascorbic acid, 0.01 mM pargyline HCl and 10 mM glucose pH 7.4) and centrifuged for 15 minutes at 25000×g. The final pellet was resuspended in perfusion buffer and placed in a water bath (37° C.) for 10 minutes. Radiolabeled neurotransmitter is added (30 μL ^3H DA, 20 μL ^3H NE, 10 μL ^3H glutamate) to achieve a final concentration of 100 nM, vortexed and placed in a water bath for additional 10 minutes. Tissue-loaded filters is placed onto 11-mm diameter Gelman A/E filters on an open-air support. After a 10-minute wash period, fractions are collected to establish the basal release and agonist applied in the perfusion stream. Further fractions were collected after agonist application to re-establish the baseline. The perfusate was collected directly into scintillation vials and released radioactivity was quantified using conventional liquid scintillation techniques. Release of neurotransmitter was determined in the presence of 10μM of various ligands and was expressed as a percentage of release obtained with a concentration of 10 μM (S)-(−)-nicotine or 300 μM TMA resulting in maximal effects.

Another assay concerns rubidium ion flux. Put plainly: Determination of rubidium ion release (rubidium ion flux assay). Particulars: rubidium ion released relative to 300 uM tetramethylammonium ion. The procedure: Determination of Rubidium Ion Release
Rubidium release was measured using the techniques described in Bencherif et al., JPET, 279: 1413-1421 (1996). Reported EC50 values are expressed in nM, and Ema, values represent the amount of rubidium ion released relative to 300 uM tetramethylammonium ion, on a percentage basis.

For `CNCC/C=C/c1cncc(C(=O)NCc2ccccc2)c1` [Sample No. 2, (3E)-N-methyl-N-[3-(5-(N-benzylcarboxamido)pyridin)yl]-3-buten-1-amine], the “Emax for dopamine release” value in the assay with dopamine release stood at 12%.

Take `CN[C@@H](C)C/C=C/c1cc(OC(C)C)c[n+]([O-])c1` [Sample No. 5]: in the assay on Rat brain synaptosomes, the “neurotransmitter release Emax” value is 19%.

As for `CNCC/C=C/c1cncc(OCC(C)C)c1` [Sample No. 6, (3E)-N-methyl-4-(3-(5-isobutoxypyridin)yl)-3-buten-1-amine hemigalactarate], the “Emax for dopamine release” value with dopamine release was 25%. The “Emax in the rubidium ion flux assay” value with rubidium ion flux came out at 15%.

As to `CNC(C)CC=Cc1ccc[n+]([O-])c1` (centres unmarked) [Sample No. 8, (4E)-N-methyl-5-(3-(1-oxopyridin)yl)-4-penten-2-amine], the “neurotransmitter release Emax” value with Rat brain synaptosomes amounted to 9%.

Consider `CCSc1cncc(/C=C/CCNC)c1` [Sample No. 9, (3 E)-N-methyl-4-(3-(5-ethylthiopyridin)yl)-3-buten-1-amine hemigalactarate], for which the “Emax for dopamine release” value in the assay on dopamine release turned out to be 39%. For the same molecule, the “Emax in the rubidium ion flux assay” value in the assay on rubidium ion flux is 40%.

Regarding `CNC(C)CC=Cc1cncc(C(F)(F)F)c1` (centres unmarked) [Sample No. 10, (4E)-N-methyl-5-(3-(5-trifluoromethylpyridin)yl)-4-penten-2-amine], the “neurotransmitter release Emax” value in the assay on Rat brain synaptosomes stood at 50%. In addition, the “Emax in the rubidium ion flux assay” value in the assay with rubidium ion flux worked out at 0%.

As for `CC(N)CC=Cc1cncc(OC(C)C)c1` (centres unmarked) [Sample No. 12, (4E)-5-(3-(5-isopropoxypyridin)yl)-4-penten-2-amine hemigalactarate], the “neurotransmitter release Emax” value in the assay on Rat brain synaptosomes was determined as 32%.

`CNC(C)CC=Cc1cncc(O)c1` (centres unmarked) [Sample No. 13, (4E)-N-methyl-5-(3-(5-hydroxypyridin)yl)-4-penten-2-amine sesquioxalate]: the “neurotransmitter release Emax” value in the assay with Rat brain synaptosomes came to 80%.
